The term Ki denotes the equilibrium dissociation constant of an inhibitor or competing ligand from its target. Usually inhibition stands for the percentage by which the read-out fell short of the control. A high value points to strong suppression.

Where two headings read alike, the source gives them in different places.

One test concerns the target σ1-receptor (Cavia porcellus, UniProt Q60492). As to the kind of experiment: Sigma 1 (Version B) radioligand binding, [3H]-(+)-pentazocine, guinea pig brain preparation. More on the design: the σ1-receptor preparation was prepared from guinea pig brain; from tissue; host or cells: guinea pig brain membrane homogenate. The method, then: In brief the σ1-receptor preparation was prepared from guinea pig brain. The brains were homogenized in 5 to 6 times of volume sucrose solution (0.32M) and homogenized. The homogenate was centrifuged at 2900 rpm, 4° C., 10 min). the supernatant was centrifuged again (23500×g, 4° C., 20 min). The pellet was resuspended in Tris-buffer, incubated for 30 min at room temperature and centrifuged f (23500×g, 4° C., 20 min). The pellet was resuspended in cold TRIS-buffer and homogenized. Then the protein content was measured (approx. 1.5 mg/mL) and the homogenate frozen at −80° C. for later use.
The radioligand used was […]-(+)-Pentazocin in TRIS-buffer. In a volume of 200 μL 50 μL TRIS-buffer, 50 μL compound solution of varying concentration, 50 μL radioligand-solution (8 nM; resulting in 2 nM in the assay) and finally 50 μL of receptor preparation (approx. 1.5 mg/mL) were given into a well of a microplate equipped with a filter. The plate was closed and stirred for 2.5 h at 37° C. and 500 rpm. Following that the solvents were removed by a harvester through the filter. After rinsing with H2O the filter was measured in a scintillation counter ([^3H]-protocol).

The target in another test is T1, σ2-receptor (Rattus norvegicus, UniProt Q5U3Y7).
T1 construct: the σ2-Receptorpreparation was prepared from rat liver; from tissue; host or cells: rat liver membrane homogenate
T1 sequence (Q5U3Y7 1-176): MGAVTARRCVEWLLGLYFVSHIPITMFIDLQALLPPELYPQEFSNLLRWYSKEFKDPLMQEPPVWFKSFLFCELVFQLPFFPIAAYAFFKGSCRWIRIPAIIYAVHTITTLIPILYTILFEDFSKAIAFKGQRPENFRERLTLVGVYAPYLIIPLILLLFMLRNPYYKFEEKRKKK
As to the kind of experiment: Sigma 2 (Version B) radioligand binding, [3H]-ditolylguanidine, rat liver preparation, σ1 sites masked with (+)-pentazocine. The following applies: for inhibition at 1 µM: compound at 1 μM; for Ki: [3H]-ditolylguanidine 3 nM. The procedure:
In brief the σ2-Receptorpreparation was prepared from rat liver. The livers were homogenized in 5 to 6 times of volume sucrose solution (0.32M) and homogenized. The homogenate was centrifuged at 2900 rpm, 4° C., 10 min). the supernatant was centrifuged again (31000×g, 4° C., 20 min). The pellet was resuspended in TRIS-buffer, incubated for 30 min at room temperature while stirring and centrifuged f (31000×g, 4° C., 20 min). The pellet was resuspended in cold TRIS-buffer pH 8 and homogenized. Then the protein content was measured (approx. 2 mg/mL) and the homogenate frozen at −80° C. for later use.
The radioligand used was [^3H]-Ditolylguanidin in TRIS-buffer pH 8. The σ1-receptor binding sites were masked through (+)-Pentazocin-solution in TRIS-Puffer pH 8.
In a volume of 200 μL 50 μL compound solution of varying concentration, 50 μL (+)-Pentazocin-solution (2 μM; resulting in 500 nM in the assay), 50 μL radioligand-solution (12 nM; resulting in 3 nM in the assay) and finally 50 μL of receptor preparation (approx. 2 mg/mL) were given into a well of a microplate equipped with a filter. The plate was closed and stirred for 2 h at room temperature and 500 rpm. Following that the solvents were removed by a harvester through the filter. After rinsing with H2O the filter was measured in a scintillation counter ([^3H]-protocol).

Setting [1] is: version B, guinea pig brain, [3H]-(+)-pentazocine 2 nM, read-out: Binding σ1 Ki.

σ1-receptor, sequence (Q60492 whole entry): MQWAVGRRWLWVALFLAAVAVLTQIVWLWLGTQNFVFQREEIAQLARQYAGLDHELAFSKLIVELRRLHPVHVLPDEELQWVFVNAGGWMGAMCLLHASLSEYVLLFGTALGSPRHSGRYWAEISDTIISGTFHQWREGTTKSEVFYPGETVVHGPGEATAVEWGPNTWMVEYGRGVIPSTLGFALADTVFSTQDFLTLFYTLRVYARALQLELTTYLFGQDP

For `COC1OC2(CCNCC2)c2cnn(-c3ccccc3)c21` (stereo not drawn) [Example 2, 6′-Methoxy-1′-phenyl-4′,6′-dihydro-1′H-spiro[piperidin-4,4′-furo[3,4-c]pyrazole]], the Ki on σ1-receptor (setting [1]) is 1200 nM. Testing at 1 µM at σ2-receptor gave an inhibition of 12%. As to `COC1Cc2c(cnn2-c2ccccc2)C2(CCN(Cc3ccccc3)CC2)O1` (stereo not drawn) [Example 5, 1-Benzyl-6′-methoxy-1′-phenyl-6′,7′-dihydro-1′H-spiro[piperidin-4,4′-pyrano[4,3-c]pyrazole]], at σ1-receptor, the Ki amounted to 1.46 nM. The same molecule had an inhibition at 1 µM on σ2-receptor of 22%. On σ2-receptor, `CCCN1CCC2(CC1)OC(OC)Cc1c2cnn1-c1ccccc1` (stereo not drawn) [Example 7, 6′-Methoxy-1′-phenyl-1-propyl-6′,7′-dihydro-1′H-spiro[piperidin-4,4′-pyrano[4,3-c]pyrazole]] returned a Ki of 3030 nM. Consider `CCCCN1CCC2(CC1)OC(OC)Cc1c2cnn1-c1ccccc1` (stereo not drawn) [Example 9, 1-Butyl-6′-methoxy-1′-phenyl-6′,7′-dihydro-1′H-spiro[piperidin-4,4′-pyrano[4,3-c]pyrazole]], for which the Ki at σ1-receptor was 8.04 nM; at σ2-receptor, 752 nM. In the case of `CCCCCN1CCC2(CC1)OC(OC)Cc1c2cnn1-c1ccccc1` (stereo not drawn) [Example 11, 6′-Methoxy-1-pentyl-1′-phenyl-6′,7′-dihydro-1′H-spiro[piperidin-4,4′-pyrano[4,3-c]pyrazole]], the Ki worked out at 0.82 nM on σ1-receptor and 340 nM on σ2-receptor.

Consider `COC1Cc2c(cnn2-c2ccccc2)C2(CCN(CCc3ccccc3)CC2)O1` (stereo not drawn) [Example 16, 6′-Methoxy-1′-phenyl-1-(2-phenylethyl)-6′,7′-dihydro-1′H-spiro[piperidin-4,4′-pyrano[4,3-c]pyrazole]], for which the Ki came out at 2.73 nM on σ1-receptor and 570 nM on σ2-receptor. Take `COC1Cc2c(cnn2-c2ccccc2)C2(CCN(CCCc3ccccc3)CC2)O1` (stereo not drawn) [Example 17, 6′-Methoxy-1′-phenyl-1-(3-phenylpropyl)-6′,7′-dihydro-1′H-spiro[piperidin-4,4′-pyrano[4,3-c]pyrazole]]: the Ki on σ1-receptor came to 3.24 nM; at σ2-receptor it was 833 nM. As to `COc1ccc(CN2CCC3(CC2)OC(OC)Cc2c3cnn2-c2ccccc2)cc1` (stereo not drawn) [Example 20, 6′-Methoxy-1-(4-methoxybenzyl)-1′-phenyl-6′,7′-dihydro-1′H-spiro[piperidin-4,4′-pyrano[4,3-c]pyrazole]], the results for the Ki at σ1-receptor and on σ2-receptor were 1.54 nM and 925 nM, respectively. On σ1-receptor, `COC1Cc2c(cnn2C)C2(CCN(Cc3ccccc3)CC2)O1` (stereo not drawn) [Example 22, 1-Benzyl-6′-methoxy-1′-methyl-6′,7′-dihydro-1′H-spiro[piperidin-4,4′-pyrano[4,3-c]pyrazole]] returned a Ki of 21.4 nM. Further, the inhibition at 1 µM on σ2-receptor was 0%. Take `COC1Cc2c(cnn2C)C2(CCN(CCCc3ccccc3)CC2)O1` (stereo not drawn) [Example 24, 6′-Methoxy-1′-methyl-1-(3-phenylpropyl)-6′,7′-dihydro-1′H-spiro[piperidin-4,4′-pyrano[4,3-c]pyrazole]]: the Ki is 92.7 nM on σ1-receptor and 1730 nM on σ2-receptor. The molecule `COC1Cc2c(cnn2C)C2(CCN(Cc3ccc(F)cc3)CC2)O1` (stereo not drawn) [Example 25, 1-(4-Fluorbenzyl)-6′-methoxy-1′-methyl-6′,7′-dihydro-1′H-spiro[piperidin-4,4′-pyrano[4,3-c]pyrazole]] came in with an inhibition constant Ki on σ1-receptor of 21.1 nM. On σ2-receptor, this molecule registered an inhibition at 1 µM of 46%. `COC1Cc2c(cnn2C)C2(CCN(CCC(C)C)CC2)O1` (stereo not drawn) [Example 26, 1-Isopentyl-6′-methoxy-1′-methyl-6′,7′-dihydro-1′H-spiro[piperidin-4,4′-pyrano[4,3-c]pyrazole]] had a Ki on σ1-receptor of 17.8 nM. At σ2-receptor, this molecule showed an inhibition at 1 µM of 22%. Molecule `CCCN1CCC2(CC1)OC(OC)Cc1c2cnn1C` (stereo not drawn) [Example 27, 6′-Methoxy-1′-methyl-1-propyl-6′,7′-dihydro-1′H-spiro[piperidin-4,4′-pyrano[4,3-c]pyrazole]] yielded an inhibition at 1 µM at σ2-receptor of 0%.

`Cn1ncc2c1CC(O)OC21CCN(Cc2ccccc2)CC1` (stereo not drawn) [Example 28, 1-Benzyl-1′-methyl-6′,7′-dihydro-1′H-spiro[piperidin-4,4′-pyrano[4,3-c]pyrazole]-6′-ol] gave a Ki at σ1-receptor of 190 nM. This molecule showed an inhibition at 1 µM at σ2-receptor of 21%.

As to `Cn1ncc2c1C=COC21CCN(Cc2ccccc2)CC1` [Example 29, 1-Benzyl-1′-methyl-1′H-spiro[piperidin-4,4′-pyrano[4,3-c]pyrazole]], the Ki on σ1-receptor is 11.8 nM; on σ2-receptor, 429 nM. The like results for `Cn1ncc2c1CCOC21CCN(Cc2ccccc2)CC1` [Example 30, 1-Benzyl-1′-methyl-6′,7′-dihydro-1′H-spiro[piperidin-4,4′-pyrano[4,3-c]pyrazole]] were, in that order, 9.18 nM and 191 nM.

The molecule `OC1Cc2c(cnn2-c2ccccc2)C2(CCN(Cc3ccccc3)CC2)O1` (stereo not drawn) [Example 32, 1-Benzyl-1′-phenyl-6′,7′-dihydro-1′H-spiro[piperidin-4,4′-pyrano[4,3-c]pyrazole]-6′-ol] registered a Ki at σ1-receptor of 27.1 nM. This molecule also had an inhibition at 1 µM on σ2-receptor of 41%.

Consider `C1=Cc2c(cnn2-c2ccccc2)C2(CCN(Cc3ccccc3)CC2)O1` [Example 33, 1-Benzyl-1′-phenyl-1′H-spiro[piperidin-4,4′-pyrano[4,3-c]pyrazole]], for which the values for the Ki on σ1-receptor and at σ2-receptor were 1.48 nM and 557 nM, respectively. On the same counts, the results for `c1ccc(CN2CCC3(CC2)OCCc2c3cnn2-c2ccccc2)cc1` [Example 34, 1-Benzyl-1′-phenyl-6′,7′-dihydro-1′H-spiro[piperidin-4,4′-pyrano[4,3-c]pyrazole]] are 1.71 nM and 773 nM. `CC(C)CCN1CCC2(CC1)OCCc1c2cnn1-c1ccccc1` [Example 35, 1-Isopentyl-1′-phenyl-6′,7′-dihydro-1′H-spiro[piperidin-4,4′-pyrano[4,3-c]pyrazole]]: the Ki at σ1-receptor (setting [1]) was 0.98 nM; at σ2-receptor, 83.3 nM. With `CC(C)=CCN1CCC2(CC1)OCCc1c2cnn1-c1ccccc1` [Example 36, 1-(Methylbut-2-en-1-yl)-1′-phenyl-6′,7′-dihydro-1′H-spiro[piperidin-4,4′-pyrano[4,3-c]pyrazole]], the Ki at σ1-receptor was found to be 0.97 nM; at σ2-receptor it was 269 nM. `c1ccc(CCCN2CCC3(CC2)OCCc2c3cnn2-c2ccccc2)cc1` [Example 37, 1-Phenylpropyl-1′-phenyl-6′,7′-dihydro-1′H-spiro[piperidin-4,4′-pyrano[4,3-c]pyrazole]] registered a Ki on σ2-receptor of 102 nM. `c1ccc(-n2ncc3c2CCOC32CCN(CC3CCCCC3)CC2)cc1` [Example 38, 1-(Cyclohexan-1-ylmethyl)-1-phenyl-6′,7′-dihydro-1′H-spiro[piperidin-4,4′-pyrano[4,3-c]pyrazole]]: the Ki at σ1-receptor (setting [1]) is 0.43 nM; at σ2-receptor, 42.8 nM. With `CC(C)CCN1CCC2(CC1)OCCc1c2cnn1C` [Example 39, 1-Isopentyl-1′-methyl-6′,7′-dihydro-1′H-spiro[piperidin-4,4′-pyrano[4,3-c]pyrazole]], at σ1-receptor (setting [1]), the Ki worked out at 29.9 nM. Further, at σ2-receptor, at 1 µM the inhibition was 27%. The molecule `CC(C)=CCN1CCC2(CC1)OCCc1c2cnn1C` [Example 40, 1-(Methylbut-2-en-1-yl)-1′-methyl-6′,7′-dihydro-1′H-spiro[piperidin-4,4′-pyrano[4,3-c]pyrazole]] had an inhibition at 1 µM at σ2-receptor of 49%. As for `Cn1ncc2c1CCOC21CCN(CCCc2ccccc2)CC1` [Example 41], the Ki on σ1-receptor (setting [1]) was 17.4 nM; at σ2-receptor it was 1070 nM.
